Data set [1] has as its system Rattus norvegicus. Description: Antidiuretic activity in iv dosed rat. Format: ADME, organism-based, Urine. The following applies: in vivo.
Data set [2] is described as follows: Oxytocic potency in rat by mammary strip assay. Format: functional.
Data set [3] is filed under the species Rattus norvegicus. Description: Ratio of oxytocic potency to antidiuretic activity in rat. More on the design: species or system Urine.
Data set [4] in a line: Oxytocic potency in rat by uterus assay. Type of data set: functional.
The species entered for data set [5] is Rattus norvegicus. Description: Vasopressor activity in rat. Type of data set: ADME, organism-based. The following applies: in vivo.
The species entered for data set [6] is Rattus norvegicus. Description: Oxytocic potency in rat assessed as milk ejection. Format: functional.
Data set [7] can be described thus: Oxytocic potency in rat by uterus assay in presence of 0.5 mM Mg2+. Type of data set: functional.
Data set [8] in a line: Retardation factor, Rf value of the compound in butan-1-ol-water (3.5% in acetic acid, 1.5% in pyridine) (1:1 v/v,upper phase) solvent system. The following applies: buffer. Format: physicochemical.
A short description of data set [9]: Retardation factor, Rf value of the compound in butan-1-ol-acetic acid-water-pyridine (15:3:3:10v/v) solvent system. Format: physicochemical. The following applies: buffer.
Data set [10] is described as follows: Retardation factor, Rf value of the compound in butan-1-ol-acetic acid-water (4:1:5 v/v, upper phase) solvent system. Type of data set: physicochemical. The following applies: buffer.
Data set [11] in a line: Retardation factor, Rf value of the compound in butan-1-ol-acetic acid-water-ethyl acetate (1:1:1:1 v/v) solvent system. Type of data set: physicochemical. The following applies: buffer.
The species entered for the next data set is Oryctolagus cuniculus. The experiment in a line: Oxytocic potency in rabbit assessed as milk ejection. Type of data set: functional.

This passage reports Activity, Ratio and Rf results from ChEMBL document CHEMBL3244056, “Synthesis and some pharmacological properties of [4-threonine, 7-glycine]oxytocin, [1-(L-2-hydroxy-3-mercaptopropanoic acid), 4-threonine, 7-glycine]oxytocin (hydroxy[Thr4, Gly7]oxytocin), and [7-Glycine]oxytocin, peptides with high oxytocic-antidiuretic selectivity” (J Med Chem, 1977).

The structures appear in SMILES notation. Starred links: 1 amine or outer side, 2 acyl side, 3 side chain; linkers in the order of their positions; H or OH if unused. Positions of bridges follow the written chain, without caps; N, C: chain ends. Residues, ends and D or L forms follow the SMILES beside them. X1 = O=C([C@H](O)CS[*:2])[*:1] A value given as a limit tells only on which side of the number the result lay.

For the compound `CC[C@H](C)[C@@H]1NC(=O)[C@H](Cc2ccc(O)cc2)NC(=O)[C@H](O)CSSC[C@@H](C(=O)N2CCC[C@H]2C(=O)N[C@@H](CC(C)C)C(=O)NCC(N)=O)NC(=O)[C@H](CC(N)=O)NC(=O)[C@H]([C@@H](C)O)NC1=O` (YITNCPLG-NH2; linker N-5 via X1), the Activity in the data set on Rattus norvegicus [1] is listed as 5.3 U/mg; in [2] it was 378 U/mg; in [4], 4179 U/mg; in the data set listed under Rattus norvegicus [5], 4.92 U/mg; in the data set filed under Rattus norvegicus [6] it was 808 U/mg; in data set [7] it was 937 U/mg. Moreover, the Ratio in the data set filed under Rattus norvegicus [3] is recorded as 790.

As for `CC[C@H](C)[C@@H]1NC(=O)[C@H](Cc2ccc(O)cc2)NC(=O)[C@@H](N)CSSC[C@@H](C(=O)NCC(=O)N[C@@H](CC(C)C)C(=O)NCC(N)=O)NC(=O)[C@H](CC(N)=O)NC(=O)[C@H]([C@@H](C)O)NC1=O` (H-CYITNCGLG-NH2; disulfide 1-6), the Activity in the data set on Rattus norvegicus [1] is listed as 0.002 U/mg; in data set [2], 490 U/mg; in [4], 166 U/mg; in the data set listed under Rattus norvegicus [5] it was below 0.01 U/mg; in the data set listed under Rattus norvegicus [6] it was 802 U/mg; in data set [7] it was 857 U/mg. Moreover, the Rf in data set [8] worked out at 0.27; in data set [9] it was 0.83; in data set [10] it was 0.37; in data set [11], 0.85. Also, the Ratio in the data set listed under Rattus norvegicus [3] was found to be 83000.

For `CC[C@H](C)[C@@H]1NC(=O)[C@H](Cc2ccc(O)cc2)NC(=O)[C@@H](N)CSSC[C@@H](C(=O)NCC(=O)N[C@@H](CC(C)C)C(=O)NCC(N)=O)NC(=O)[C@H](CC(N)=O)NC(=O)[C@H](CCC(N)=O)NC1=O` (H-CYIQNCGLG-NH2; disulfide 1-6), the Activity is on record as 0.0056 U/mg in the data set with Rattus norvegicus [1]; 478 U/mg in data set [2]; 65 U/mg in [4]; below 0.01 U/mg in the data set filed under Rattus norvegicus [5]; 392 U/mg in the data set filed under Rattus norvegicus [6]; 965 U/mg in data set [7]. Further, the Rf in data set [8] was determined as 0.17; in data set [9], 0.75; in data set [10] it was 0.3; in data set [11] it was 0.74. Further, the Ratio in the data set filed under Rattus norvegicus [3] is recorded as 16600.

`CC[C@H](C)[C@@H]1NC(=O)[C@H](Cc2ccc(O)cc2)NC(=O)[C@H](O)CSSC[C@@H](C(=O)NCC(=O)N[C@@H](CC(C)C)C(=O)NCC(N)=O)NC(=O)[C@H](CC(N)=O)NC(=O)[C@H]([C@@H](C)O)NC1=O` (YITNCGLG-NH2; linker N-5 via X1): the Activity was 0.004 U/mg in the data set on Rattus norvegicus [1]; 623 U/mg in data set [2]; 218 U/mg in [4]; below 0.01 U/mg in the data set listed under Rattus norvegicus [5]; 950 U/mg in the data set listed under Rattus norvegicus [6]; 1002 U/mg in [7]. Also, the Rf in data set [8] is reported as 0.52; in data set [9], 0.88; in [10], 0.56; in data set [11], 0.89. In addition, the Ratio in the data set listed under Rattus norvegicus [3] worked out at 54500.

As to `CC[C@H](C)[C@@H]1NC(=O)[C@H](Cc2ccc(O)cc2)NC(=O)[C@@H](N)CSSC[C@@H](C(=O)N2CCC[C@H]2C(=O)N[C@@H](CC(C)C)C(=O)NCC(N)=O)NC(=O)[C@H](CC(N)=O)NC(=O)[C@H](CCC(N)=O)NC1=O` [OXYTOCIN], the Activity in the data set with Rattus norvegicus [1] turned out to be 4 U/mg; in data set [2], 533 U/mg; in data set [4] it was 520 U/mg; in data set [7], 486 U/mg; in the data set filed under Oryctolagus cuniculus, 543 U/mg.

In the case of `CC[C@H](C)[C@@H]1NC(=O)[C@H](Cc2ccc(O)cc2)NC(=O)[C@@H](N)CSSC[C@@H](C(=O)N2CCC[C@H]2C(=O)N[C@@H](CC(C)C)C(=O)NCC(N)=O)NC(=O)[C@H](CC(N)=O)NC(=O)[C@H]([C@@H](C)O)NC1=O` (H-CYITNCPLG-NH2; disulfide 1-6), the Activity with Rattus norvegicus [1] is 1.8 U/mg; in [4] it was 923 U/mg; in the data set listed under Rattus norvegicus [5], 0.43 U/mg; in the data set listed under Rattus norvegicus [6], 543 U/mg; in data set [7], 719 U/mg. For the same compound, in the data set listed under Rattus norvegicus [3], the Ratio turned out to be 510.
